Entries after “also recorded” stand apart in the source; their conditions may differ. Read-outs that look alike come from different tables or passages of the source.
Experiments:
[1] = biological target: T1, ERα (Homo sapiens, UniProt P03372); assay: cell-based; format: cell-based; conditions: for ERα DNA binding and transcription at the 100nM dose / PRL-ERα EC50 (nM) / EC50: ERα-GFP:PRL-HeLa; for PRL-ERα EC50 (nM) / EC50: array formation (DNA binding), 1 h; for selectivity for either estrogen receptor: ERα vs ERβ array EC50
T1 sequence (P03372 1-595): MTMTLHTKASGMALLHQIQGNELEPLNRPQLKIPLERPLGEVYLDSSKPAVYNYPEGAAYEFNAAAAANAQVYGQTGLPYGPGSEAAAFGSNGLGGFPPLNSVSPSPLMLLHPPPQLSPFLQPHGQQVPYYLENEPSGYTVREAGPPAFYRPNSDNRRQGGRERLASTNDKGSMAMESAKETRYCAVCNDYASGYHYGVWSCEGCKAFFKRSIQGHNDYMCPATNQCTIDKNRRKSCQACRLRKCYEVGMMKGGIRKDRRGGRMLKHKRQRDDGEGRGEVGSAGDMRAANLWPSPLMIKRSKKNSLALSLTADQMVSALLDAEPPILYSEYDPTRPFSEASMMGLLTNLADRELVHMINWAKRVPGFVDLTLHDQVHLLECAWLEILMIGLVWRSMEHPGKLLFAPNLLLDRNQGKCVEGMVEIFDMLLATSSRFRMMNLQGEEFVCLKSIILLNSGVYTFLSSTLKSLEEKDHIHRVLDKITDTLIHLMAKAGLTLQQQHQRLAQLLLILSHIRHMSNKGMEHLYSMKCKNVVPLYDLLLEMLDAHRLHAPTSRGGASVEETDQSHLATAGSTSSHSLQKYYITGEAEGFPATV

[2] = test system: GREB1; assay: GREB1 mRNA expression by qPCR in MCF-7; format: cell-based; conditions: MCF-7, 24 h; for GREB1 transcription (qPCR) compared to DMSO: E2 1nM, IBV 10nM, PHX, genistein, ±equol 100nM, neobavaisoflavone, bavachin, isobavachalcone, daidzein 1μM
[3] = biological target: T2, ERβ (Homo sapiens, UniProt Q92731); assay: cell-based; format: cell-based
T2 sequence (Q92731 whole entry): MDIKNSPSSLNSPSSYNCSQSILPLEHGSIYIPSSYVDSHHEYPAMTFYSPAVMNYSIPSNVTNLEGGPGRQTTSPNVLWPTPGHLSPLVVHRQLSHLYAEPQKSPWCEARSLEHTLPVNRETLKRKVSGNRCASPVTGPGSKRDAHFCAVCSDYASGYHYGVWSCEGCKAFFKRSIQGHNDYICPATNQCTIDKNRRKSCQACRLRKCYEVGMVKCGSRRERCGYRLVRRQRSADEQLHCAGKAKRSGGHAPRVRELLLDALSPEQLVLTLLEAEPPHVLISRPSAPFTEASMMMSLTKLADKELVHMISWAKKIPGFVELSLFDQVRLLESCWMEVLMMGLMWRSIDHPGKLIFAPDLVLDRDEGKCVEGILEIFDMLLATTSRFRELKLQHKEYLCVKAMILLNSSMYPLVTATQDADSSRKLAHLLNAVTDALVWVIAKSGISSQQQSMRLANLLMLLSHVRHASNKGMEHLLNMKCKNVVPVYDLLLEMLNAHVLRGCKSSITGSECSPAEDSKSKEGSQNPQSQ

[4] = test system: MCF-7 cells; assay: MCF-7 proliferation assay; format: cell-based; conditions: 120 h; for increase in cell number of MCF-7 cells: compared with DMSO
[5] = test system: ERE-GFP reporter in the liver; assay: Transgenic zebrafish ERE-GFP reporter, liver; format: in vivo; conditions: for ERE-GFP activation in the zebrafish (liver or heart): nonlethal doses tested (<100μM); for ER signal (ERE-GFP) in the liver: highest nonlethal doses tested
[6] = test system: ERE-GFP in the heart valves; assay: Transgenic zebrafish ERE-GFP reporter, heart valves; format: in vivo; conditions: highest nonlethal doses tested
[7] = test system: ERα; conditions: read-out: EC50 for displacement of E2 from ERα in rat uteri; cited from earlier work
[8] = biological target: T3, progesterone receptor (GFP-PR) (Homo sapiens, UniProt P06401); assay: GFP-PR PRL array biosensor cell line, array formation; format: cell-based; conditions: 100nM
T3 sequence (P06401 679-933 limits assumed): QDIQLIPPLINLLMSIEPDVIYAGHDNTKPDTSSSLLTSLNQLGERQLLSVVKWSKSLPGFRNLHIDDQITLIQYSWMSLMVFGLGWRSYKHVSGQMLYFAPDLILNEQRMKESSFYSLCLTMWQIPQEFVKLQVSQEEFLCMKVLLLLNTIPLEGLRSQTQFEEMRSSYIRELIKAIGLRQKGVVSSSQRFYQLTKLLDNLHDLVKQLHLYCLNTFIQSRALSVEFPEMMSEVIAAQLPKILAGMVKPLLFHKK

[9] = test system: ERα or ERβ; format: cell-based; conditions: flavonoid screen, cell line not stated
[10] = biological target: T1, ERα; assay: dsRed2 reporter RNA FISH in ERα-GFP:PRL-HeLa; format: cell-based
[11] = test system: GREB1; assay: GREB1 smRNA FISH; format: cell-based; conditions: MCF-7, 24 h; E2 1nM, IBV 10 and 100nM, PHX 100nM
[12] = biological target: T2, ERβ; assay: dsRed2 reporter RNA FISH in GFP-ERβ:PRL-HeLa; format: cell-based; conditions: highest dose tested (10μM)
[13] = array formation (DNA binding), GFP-ERβ:PRL-HeLa, 1 h
[14] = read-out: PRL-ERβ EC50, array formation (DNA binding), GFP-ERβ:PRL-HeLa, 1 h

## COc1ccc(-c2cc(=O)c3c(O)cc(O[C@@H]4O[C@H](CO)[C@@H](O)[C@H](O)[C@H]4O[C@@H]4O[C@@H](C)[C@H](O)[C@@H](O)[C@H]4O)cc3o2)cc1O [Neodiosmin]
[1]
  ERα DNA binding and transcription at the 100nM dose: induced ERα DNA binding and transcription

## O=c1c(-c2ccc(O)cc2)coc2cc(O)ccc12 [Daidzein]
[2]
  GREB1 transcription (qPCR) compared to DMSO: activation of GREB1 transcription

## COc1ccc(CCC(=O)c2ccc(O)cc2)c(OC)c1 [Loureirin A]
[1]
  PRL-ERα EC50 (nM): sub-micromolar
[1]; read-out: PRL-ERα EC50
  EC50: 50 nM
[3]; [13]
  PRL-ERβ EC50 (nM): sub-micromolar
[3]; [14]
  EC50: 76.2 nM
[4]
  EC50 in MCF-7 growth assay: sub-micromolar
  MCF-7 cell proliferation, reaching the level of E2: not able to reach the level of E2
  increase in cell number of MCF-7 cells: 50%
[5]
  ERE-GFP activation in the zebrafish (liver or heart): Neither isosakuranetin, echinatin, nor loureirin A activated the ERE-GFP

## Oc1ccc([C@H]2COc3cc(O)ccc3C2)cc1 [S-Equol]
[1]
  ERα DNA binding and transcription at the 100nM dose: induced ERα DNA binding and transcription
[3]; 100nM
  activity in GFP-ERβ:PRL-HeLa cells at the 100nM dose: also active

## Oc1ccc(C2=Cc3ccc(O)cc3OC2)cc1 [Phenoxodiol (Haginin E), Phenoxodiol]
[3]
  activity in GFP-ERβ:PRL-HeLa cells at the 100nM dose: also active
[2]
  GREB1 transcription (qPCR) compared to DMSO: activation of GREB1 transcription
[5]
  ER signal (ERE-GFP) in the liver: activate ER signal
[6]
  ER signal (ERE-GFP) in the heart: activate ER signal
[7]
  EC50: ~500 nM

## CC(=O)[C@H]1CC[C@H]2[C@@H]3CCC4=CC(=O)CC[C@]4(C)[C@H]3CC[C@]12C [P4, progesterone]
[8]
  array formation in GFP-PR cell line (controls): successfully induced array formation

## COc1cc(-c2coc3cc(O)c(OC)c(O)c3c2=O)cc(O)c1OC [Irigenin]
[9]
  transcriptional output (dsRed2 FISH) versus DMSO: suppressed transcription

## CCC(=O)[C@@]1(C)CC[C@H]2[C@@H]3CCC4=CC(=O)CCC4=C3CC[C@@]21C [R5020]
[8]
  array formation in GFP-PR cell line (controls): successfully induced array formation

## CC(C)=CCc1c(O)ccc(C(=O)/C=C/c2ccc(O)cc2)c1O [Isobavachalcone]
[1]
  selectivity for either estrogen receptor: > 5 fold
[2]
  GREB1 transcription (qPCR) compared to DMSO: activation of GREB1 transcription

## CN1CCC(c2c(O)cc(O)c3c(=O)cc(-c4ccccc4Cl)oc23)C1CO (stereo not shown) [P276-00]
[9]
  transcriptional output (dsRed2 FISH) versus DMSO: suppressed transcriptional output to a lower level than DMSO; also recorded: suppressed transcription
[10]; 10μM, 1 h, hits in ERα-GFP:PRL-HeLa
  gene transcription (dsRed2 RNA FISH) compared to DMSO: suppress gene transcription

## CC(C)=CCc1c(O)ccc2c1O[C@H](c1ccc(O)cc1)CC2=O [Isobavachin]
[1]
  ERα DNA binding and transcription at the 100nM dose: induced ERα DNA binding and transcription
[1]; PRL-ERα EC50 (nM)
  EC50: 1.28 nM
[3]; 100nM
  activity in GFP-ERβ:PRL-HeLa cells at the 100nM dose: also active

## C[C@]12CC[C@@H]3c4ccc(O)cc4CC[C@H]3[C@@H]1CC[C@@H]2O [E2, 17β-estradiol, reference compound]
[3]
  fraction of cells with a visible array: 75%
[11]
  induction of transcriptionally active GREB1 alleles: significant induction
[2]
  GREB1 transcription (qPCR) compared to DMSO: activation of GREB1 transcription
[4]
  increase in cell number of MCF-7 cells: 150%
[5]
  ER signal (ERE-GFP) in the liver: activate ER signal
[6]
  ER signal (ERE-GFP) in the heart: activate ER signal

## COc1cc(O)ccc1/C=C/C(=O)c1ccc(O)cc1 [Echinatin]
[1]; PRL-ERα EC50 (nM)
  EC50: 174 nM
[1]
  PRL-ERα EC50 (nM): sub-micromolar
[3]
  EC50: 69.5 nM
[3]; [13]
  PRL-ERβ EC50 (nM): sub-micromolar
[2]; compounds 1μM, E2 10nM
  GREB1 gene expression compared to DMSO and E2: induced expression to the same level as E2
[4]
  EC50 in MCF-7 growth assay: sub-micromolar
[5]
  ERE-GFP activation in the zebrafish (liver or heart): Neither isosakuranetin, echinatin, nor loureirin A activated the ERE-GFP

## CC(C)=CCc1cc2c(cc1O)O[C@H](c1ccc(O)cc1)CC2=O [Bavachin]
[1]
  selectivity for either estrogen receptor: > 5 fold
[2]
  GREB1 transcription (qPCR) compared to DMSO: activation of GREB1 transcription

## O=c1c(-c2ccc(O)cc2)coc2cc(O)cc(O)c12 [Genistein]
[2]
  GREB1 transcription (qPCR) compared to DMSO: activation of GREB1 transcription

## CN1CC[C@H](c2c(O)cc(O)c3c(=O)cc(-c4ccccc4Cl)oc23)[C@H](O)C1.Cl [Flavopiridol HCl, reference compound]
[9]
  transcriptional output (dsRed2 FISH) versus DMSO: suppressed transcriptional output to a lower level than DMSO

## C=CC(C)(C)c1cc(/C=C/C(=O)c2ccc(O)cc2)c(OC)cc1O [Licochalcone A]
[1]; read-out: PRL-ERα EC50
  EC50: 508 nM
[3]; array EC50
  preference for ERβ compared to ERα: 5 fold
[3]; [14]
  EC50: 92.1 nM
[10]; highest dose tested (10μM)
  RNA FISH expression in ERα-GFP:PRL-HeLa: did not activate RNA FISH expression
[12]
  dsRed2 reporter gene activation in GFP-ERβ:PRL-HeLa: did activate the dsRed2 reporter gene

## CN1CC[C@H](c2c(O)cc(O)c3c(=O)cc(-c4ccccc4Cl)oc23)[C@H](O)C1 [Flavopiridol (Alvocidib), Flavopiridol, reference compound]
[9]
  transcriptional output (dsRed2 FISH) versus DMSO: suppressed transcriptional output to a lower level than DMSO

## CC(C)=CCc1cc(-c2coc3cc(O)ccc3c2=O)ccc1O [Neobavaisoflavone]
[1]
  selectivity for either estrogen receptor: > 5 fold
[2]
  GREB1 transcription (qPCR) compared to DMSO: activation of GREB1 transcription

Source: publication PMC10926205 (iScience, 2024)
